{
  "source": "patent US20220071933A1",
  "about": "“COMBINATION REMEDY” (SYMRISE AG, priority 2019, published 2022)",
  "key": {"[1]": {"test_system": "HGT-1 parietal cell model", "assay": "Proton secretion assay (intracellular proton index, IPX) in the HGT-1 parietal cell model", "assay_type": "cell-based", "settings": "for IPX [induced by 50 mM AA] D: D stereoisomer; for IPX [induced by 50 mM AA] D / IPX [induced by 50 mM AA] L: 50 mM amino acid, HGT-1 cells, IPX based on log 2 data of intracellular proton concentration, lower IPX = more protons secreted; for IPX [induced by 50 mM AA] L: L stereoisomer; for acid modulating effect (indicator of satiety): among the amino acids listed in Table 1", "description": "The value of intracellular proton secretion (IPX) in the parietal cell model HGT-1 (proton secretion assay), which is a marker for gastric secretion, indicates the extent to which the amino acid is able to inhibit proton secretion and is thus indirectly a measure of saturation. The intracellular proton index (IPX) is based on log 2 data of intracellular proton concentration. The lower the IPX, the more protons are secreted. A low IPX is interpreted as stimulation of gastric acid, which in turn is a saturation signal."}, "[2]": {"test_system": "dopamine release", "settings": "about 0.03 mg/kg (equivalent to 0.1 μM); cited from earlier work"}, "[3]": {"settings": "sensory; cited from earlier work"}, "[4]": {"test_system": "neurons", "settings": "concentration range 0.01 μM to 10 μM (0.003 mg/kg to 3 mg/kg); cited from earlier work"}},
  "data": [
    {"molecule": "CC(C)C(N)C(=O)O", "note": "(stereo not drawn) [VAL]", "values": [
      {"measurement": "IPX [induced by 50 mM AA] D", "setting": "[1]", "result": "−0.44 ± 0.17"},
      {"measurement": "IPX [induced by 50 mM AA] L", "setting": "[1]", "result": "0.99 ± 0.05"}
    ]},
    {"molecule": "CCCCCCCCC(=O)NCc1ccc(O)c(OC)c1", "note": "[N-nonanoylvanillylamine, N-((4-hydroxy-3-methoxyphenyl-)methyl-)nonanamide]", "values": [
      {"measurement": "stimulation of dopamine release after acetylcholine stimulation against the respective control", "setting": "[2]", "result": "up to 700%"},
      {"measurement": "detection threshold", "setting": "[3]", "result": 0.107, "unit": "mg/kg"},
      {"measurement": "irritation threshold", "setting": "[3]", "result": 0.054, "unit": "mg/kg"},
      {"measurement": "stimulation of serotonin release in neurons against the respective control", "setting": "[4]", "result": "up to 270%"}
    ]},
    {"molecule": "N=C(N)NCCC[C@H](N)C(=O)O", "note": "[L-arginine]", "values": [
      {"measurement": "acid modulating effect (indicator of satiety)", "setting": "[1]", "result": "best acid modulating effect"}
    ]},
    {"molecule": "CC(O)C(N)C(=O)O", "note": "(stereo not drawn) [THR]", "values": [
      {"measurement": "IPX [induced by 50 mM AA] D", "setting": "[1]", "result": "1.57 ± 0.05"},
      {"measurement": "IPX [induced by 50 mM AA] L", "setting": "[1]", "result": "1.43 ± 0.10"}
    ]},
    {"molecule": "CCCCC/C=C/C=C/C(=O)NCC(C)C", "note": "[pellitorin, Pellitorin]", "values": [
      {"measurement": "detection threshold", "setting": "[3]", "result": 0.1, "unit": "mg/kg"}
    ]},
    {"molecule": "NC(Cc1c[nH]c2ccccc12)C(=O)O", "note": "(stereo not drawn) [TRP]", "values": [
      {"measurement": "IPX [induced by 50 mM AA] D", "setting": "[1]", "result": "−0.04 ± 0.04"},
      {"measurement": "IPX [induced by 50 mM AA] L", "setting": "[1]", "result": "−0.66 ± 0.23"}
    ]},
    {"molecule": "O=C(O)C1CCCN1", "note": "(stereo not drawn) [PRO]", "values": [
      {"measurement": "IPX [induced by 50 mM AA] D", "setting": "[1]", "result": "0.63 ± 0.09"},
      {"measurement": "IPX [induced by 50 mM AA] L", "setting": "[1]", "result": "0.44 ± 0.08"}
    ]},
    {"molecule": "CC(C)CC(N)C(=O)O", "note": "(stereo not drawn) [LEU]", "values": [
      {"measurement": "IPX [induced by 50 mM AA] D", "setting": "[1]", "result": "1.10 ± 0.13"},
      {"measurement": "IPX [induced by 50 mM AA] L", "setting": "[1]", "result": "1.38 ± 0.14"}
    ]},
    {"molecule": "N=C(N)NCCC[C@@H](N)C(=O)O", "note": "[D-arginine]", "values": [
      {"measurement": "acid modulating effect (indicator of satiety)", "setting": "[1]", "result": "best acid modulating effect"}
    ]},
    {"molecule": "NC(CO)C(=O)O", "note": "(stereo not drawn) [SER]", "values": [
      {"measurement": "IPX [induced by 50 mM AA] D", "setting": "[1]", "result": "0.87 ± 0.10"},
      {"measurement": "IPX [induced by 50 mM AA] L", "setting": "[1]", "result": "1.40 ± 0.12"}
    ]},
    {"molecule": "CCC(C)C(N)C(=O)O", "note": "(stereo not drawn) [ILE]", "values": [
      {"measurement": "IPX [induced by 50 mM AA] D", "setting": "[1]", "result": "−0.40 ± 0.04"},
      {"measurement": "IPX [induced by 50 mM AA] L", "setting": "[1]", "result": "0.58 ± 0.07"}
    ]},
    {"molecule": "CC(N)C(=O)O", "note": "(stereo not drawn) [ALA]", "values": [
      {"measurement": "IPX [induced by 50 mM AA] D", "setting": "[1]", "result": "−0.35 ± 0.08"},
      {"measurement": "IPX [induced by 50 mM AA] L", "setting": "[1]", "result": "0.87 ± 0.10"}
    ]},
    {"molecule": "NC(Cc1ccccc1)C(=O)O", "note": "(stereo not drawn) [PHE]", "values": [
      {"measurement": "IPX [induced by 50 mM AA] D", "setting": "[1]", "result": "1.58 ± 0.10"},
      {"measurement": "IPX [induced by 50 mM AA] L", "setting": "[1]", "result": "0.50 ± 0.05"}
    ]},
    {"molecule": "N=C(N)NCCC[C@H](N)C(=O)O", "note": "[ARG, arginine]", "values": [
      {"measurement": "IPX [induced by 50 mM AA] D", "setting": "[1]", "result": "−2.37 ± 0.05"},
      {"measurement": "IPX [induced by 50 mM AA] L", "setting": "[1]", "result": "−2.71 ± 0.11"}
    ]}
  ]
}
